Columns and labels:
D(3) dopamine receptor [1] = target: T1, D(3) dopamine receptor (Homo sapiens, UniProt P35462)
Estrogen receptor = target: T2, Estrogen receptor (Homo sapiens, UniProt P03372)
T2 sequence (P03372 whole entry): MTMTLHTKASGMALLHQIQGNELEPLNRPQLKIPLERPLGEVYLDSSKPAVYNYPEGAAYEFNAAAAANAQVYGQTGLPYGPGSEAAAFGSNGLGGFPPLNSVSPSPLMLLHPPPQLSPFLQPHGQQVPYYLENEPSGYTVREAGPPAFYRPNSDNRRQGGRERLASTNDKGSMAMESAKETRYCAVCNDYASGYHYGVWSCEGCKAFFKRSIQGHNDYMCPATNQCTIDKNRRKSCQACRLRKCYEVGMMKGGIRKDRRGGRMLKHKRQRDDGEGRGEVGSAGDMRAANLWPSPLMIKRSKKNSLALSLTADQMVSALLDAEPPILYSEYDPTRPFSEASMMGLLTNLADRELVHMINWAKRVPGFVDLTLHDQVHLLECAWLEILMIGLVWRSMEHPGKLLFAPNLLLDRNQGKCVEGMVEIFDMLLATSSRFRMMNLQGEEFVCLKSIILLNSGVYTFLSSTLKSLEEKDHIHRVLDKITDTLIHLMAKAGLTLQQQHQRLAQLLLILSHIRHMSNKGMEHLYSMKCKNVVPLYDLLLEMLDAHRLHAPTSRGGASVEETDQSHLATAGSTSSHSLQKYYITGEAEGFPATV

Adenosine receptor A2a = Adenosine receptor A2a (Homo sapiens, UniProt P29274)
[2] = target: Beta-2 adrenergic receptor (Homo sapiens, UniProt P07550)
Androgen receptor = target: T3, Androgen receptor (Rattus norvegicus, UniProt P15207); assay type: functional
T3 sequence (P15207 whole entry): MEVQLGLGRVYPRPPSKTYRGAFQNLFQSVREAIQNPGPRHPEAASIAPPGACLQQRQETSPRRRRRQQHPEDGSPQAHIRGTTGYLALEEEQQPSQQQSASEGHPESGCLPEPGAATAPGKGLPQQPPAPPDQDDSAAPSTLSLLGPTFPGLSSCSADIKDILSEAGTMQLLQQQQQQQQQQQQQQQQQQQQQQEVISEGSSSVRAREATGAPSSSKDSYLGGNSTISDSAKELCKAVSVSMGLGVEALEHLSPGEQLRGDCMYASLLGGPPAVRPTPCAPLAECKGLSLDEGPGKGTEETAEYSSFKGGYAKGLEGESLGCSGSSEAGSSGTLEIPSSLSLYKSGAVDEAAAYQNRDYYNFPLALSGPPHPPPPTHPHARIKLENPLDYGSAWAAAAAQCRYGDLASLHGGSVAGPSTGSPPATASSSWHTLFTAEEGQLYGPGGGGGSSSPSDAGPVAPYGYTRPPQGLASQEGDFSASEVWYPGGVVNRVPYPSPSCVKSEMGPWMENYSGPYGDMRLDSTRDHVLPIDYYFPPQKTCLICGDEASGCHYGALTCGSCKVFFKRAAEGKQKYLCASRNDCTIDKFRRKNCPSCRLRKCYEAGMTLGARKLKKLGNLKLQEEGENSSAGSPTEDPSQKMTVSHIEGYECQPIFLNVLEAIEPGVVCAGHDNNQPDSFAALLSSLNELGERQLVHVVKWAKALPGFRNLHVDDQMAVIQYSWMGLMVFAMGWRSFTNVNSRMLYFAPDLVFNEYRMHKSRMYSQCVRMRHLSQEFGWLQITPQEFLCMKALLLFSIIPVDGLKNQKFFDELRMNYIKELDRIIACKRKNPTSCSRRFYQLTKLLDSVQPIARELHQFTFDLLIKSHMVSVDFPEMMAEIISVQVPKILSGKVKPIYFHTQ

[3] = target: T4, Gastrin/cholecystokinin type B receptor (Homo sapiens, UniProt P32239)
T4 sequence (P32239 whole entry): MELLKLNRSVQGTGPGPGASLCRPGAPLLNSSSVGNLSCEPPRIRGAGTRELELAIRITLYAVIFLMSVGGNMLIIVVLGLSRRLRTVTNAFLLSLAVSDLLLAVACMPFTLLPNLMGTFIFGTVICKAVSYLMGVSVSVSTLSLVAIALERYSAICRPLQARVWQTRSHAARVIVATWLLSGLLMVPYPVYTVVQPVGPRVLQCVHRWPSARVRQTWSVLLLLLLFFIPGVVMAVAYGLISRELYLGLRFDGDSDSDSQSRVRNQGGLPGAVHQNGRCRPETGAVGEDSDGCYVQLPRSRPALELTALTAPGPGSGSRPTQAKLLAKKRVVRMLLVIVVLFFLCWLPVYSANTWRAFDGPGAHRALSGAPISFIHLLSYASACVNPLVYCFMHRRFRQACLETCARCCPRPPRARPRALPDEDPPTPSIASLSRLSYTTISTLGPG

[4] = target: T5, Muscarinic acetylcholine receptor M2 (Homo sapiens, UniProt P08172); assay type: functional, cell-based
T5 sequence (P08172 whole entry): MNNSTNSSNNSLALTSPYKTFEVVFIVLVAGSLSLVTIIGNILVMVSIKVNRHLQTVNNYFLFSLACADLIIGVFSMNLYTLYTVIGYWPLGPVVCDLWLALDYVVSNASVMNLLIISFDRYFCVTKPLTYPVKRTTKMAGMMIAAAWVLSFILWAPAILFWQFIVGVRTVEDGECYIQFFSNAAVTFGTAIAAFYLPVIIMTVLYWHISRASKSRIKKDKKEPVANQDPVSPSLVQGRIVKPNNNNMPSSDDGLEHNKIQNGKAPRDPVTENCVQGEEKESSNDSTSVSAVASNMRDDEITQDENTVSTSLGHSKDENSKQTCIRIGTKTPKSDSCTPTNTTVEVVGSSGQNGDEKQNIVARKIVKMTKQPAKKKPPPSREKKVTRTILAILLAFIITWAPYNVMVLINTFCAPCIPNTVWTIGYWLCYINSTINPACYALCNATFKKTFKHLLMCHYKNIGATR

[5] = target: Growth hormone secretagogue receptor type 1 (Homo sapiens, UniProt Q92847)
[6] = target: 5-hydroxytryptamine receptor 2B (Homo sapiens, UniProt P41595); assay type: functional, cell-based
[7] = target: 3',5'-cyclic-AMP phosphodiesterase 4D (Homo sapiens, UniProt Q08499); assay type: functional
D(3) dopamine receptor [8] = target: T1, D(3) dopamine receptor; remark: listed apart in the source
Histamine H3 receptor = Histamine H3 receptor (Homo sapiens, UniProt Q9Y5N1)
Also: assay procedure not described here.

T1 sequence (P35462 whole entry): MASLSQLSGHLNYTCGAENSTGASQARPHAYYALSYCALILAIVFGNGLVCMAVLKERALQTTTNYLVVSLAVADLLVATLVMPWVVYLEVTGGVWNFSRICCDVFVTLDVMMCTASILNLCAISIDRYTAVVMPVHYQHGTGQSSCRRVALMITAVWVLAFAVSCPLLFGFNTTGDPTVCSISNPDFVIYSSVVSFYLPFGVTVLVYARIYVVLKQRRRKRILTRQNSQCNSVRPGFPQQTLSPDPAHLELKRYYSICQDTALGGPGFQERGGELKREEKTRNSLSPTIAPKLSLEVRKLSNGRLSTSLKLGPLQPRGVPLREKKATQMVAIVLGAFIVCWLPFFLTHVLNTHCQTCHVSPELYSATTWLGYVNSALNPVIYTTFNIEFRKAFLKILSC
Sequence of 5-hydroxytryptamine receptor 2B (P41595 whole entry): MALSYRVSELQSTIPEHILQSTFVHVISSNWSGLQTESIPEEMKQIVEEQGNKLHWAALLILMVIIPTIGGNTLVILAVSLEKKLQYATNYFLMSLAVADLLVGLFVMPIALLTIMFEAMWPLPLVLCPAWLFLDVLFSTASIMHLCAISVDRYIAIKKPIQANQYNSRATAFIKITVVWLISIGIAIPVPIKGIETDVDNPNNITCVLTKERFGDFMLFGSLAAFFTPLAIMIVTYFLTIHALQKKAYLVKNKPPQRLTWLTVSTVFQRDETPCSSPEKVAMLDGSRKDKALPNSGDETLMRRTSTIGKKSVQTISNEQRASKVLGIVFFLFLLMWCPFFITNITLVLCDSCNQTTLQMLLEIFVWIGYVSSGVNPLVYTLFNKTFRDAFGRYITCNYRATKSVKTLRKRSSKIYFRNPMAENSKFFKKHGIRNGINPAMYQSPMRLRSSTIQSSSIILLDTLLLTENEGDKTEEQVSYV
Sequence of Histamine H3 receptor (Q9Y5N1 whole entry): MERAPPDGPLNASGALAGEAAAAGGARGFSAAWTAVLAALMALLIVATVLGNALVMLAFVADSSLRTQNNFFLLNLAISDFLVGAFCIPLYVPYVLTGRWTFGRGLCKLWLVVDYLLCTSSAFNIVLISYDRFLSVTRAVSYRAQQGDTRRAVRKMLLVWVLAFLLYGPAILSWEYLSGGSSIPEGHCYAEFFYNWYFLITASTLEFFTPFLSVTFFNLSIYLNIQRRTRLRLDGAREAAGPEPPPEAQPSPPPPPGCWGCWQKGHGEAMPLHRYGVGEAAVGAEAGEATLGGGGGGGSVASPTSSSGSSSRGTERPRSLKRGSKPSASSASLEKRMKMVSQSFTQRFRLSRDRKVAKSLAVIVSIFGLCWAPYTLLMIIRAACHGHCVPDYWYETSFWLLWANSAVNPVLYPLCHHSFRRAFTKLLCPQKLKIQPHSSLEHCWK
Sequence of Adenosine receptor A2a (P29274 whole entry): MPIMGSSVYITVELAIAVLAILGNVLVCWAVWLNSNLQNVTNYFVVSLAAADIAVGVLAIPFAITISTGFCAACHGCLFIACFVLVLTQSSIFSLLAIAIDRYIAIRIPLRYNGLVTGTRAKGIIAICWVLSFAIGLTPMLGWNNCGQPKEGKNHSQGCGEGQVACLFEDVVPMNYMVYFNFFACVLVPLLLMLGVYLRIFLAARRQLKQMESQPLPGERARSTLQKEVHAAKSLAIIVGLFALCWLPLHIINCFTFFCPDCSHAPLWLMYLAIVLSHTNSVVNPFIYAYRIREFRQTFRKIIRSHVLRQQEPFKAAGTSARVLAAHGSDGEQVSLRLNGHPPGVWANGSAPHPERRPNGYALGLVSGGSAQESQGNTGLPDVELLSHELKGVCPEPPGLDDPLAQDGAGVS
Sequence of 3',5'-cyclic-AMP phosphodiesterase 4D (Q08499 whole entry): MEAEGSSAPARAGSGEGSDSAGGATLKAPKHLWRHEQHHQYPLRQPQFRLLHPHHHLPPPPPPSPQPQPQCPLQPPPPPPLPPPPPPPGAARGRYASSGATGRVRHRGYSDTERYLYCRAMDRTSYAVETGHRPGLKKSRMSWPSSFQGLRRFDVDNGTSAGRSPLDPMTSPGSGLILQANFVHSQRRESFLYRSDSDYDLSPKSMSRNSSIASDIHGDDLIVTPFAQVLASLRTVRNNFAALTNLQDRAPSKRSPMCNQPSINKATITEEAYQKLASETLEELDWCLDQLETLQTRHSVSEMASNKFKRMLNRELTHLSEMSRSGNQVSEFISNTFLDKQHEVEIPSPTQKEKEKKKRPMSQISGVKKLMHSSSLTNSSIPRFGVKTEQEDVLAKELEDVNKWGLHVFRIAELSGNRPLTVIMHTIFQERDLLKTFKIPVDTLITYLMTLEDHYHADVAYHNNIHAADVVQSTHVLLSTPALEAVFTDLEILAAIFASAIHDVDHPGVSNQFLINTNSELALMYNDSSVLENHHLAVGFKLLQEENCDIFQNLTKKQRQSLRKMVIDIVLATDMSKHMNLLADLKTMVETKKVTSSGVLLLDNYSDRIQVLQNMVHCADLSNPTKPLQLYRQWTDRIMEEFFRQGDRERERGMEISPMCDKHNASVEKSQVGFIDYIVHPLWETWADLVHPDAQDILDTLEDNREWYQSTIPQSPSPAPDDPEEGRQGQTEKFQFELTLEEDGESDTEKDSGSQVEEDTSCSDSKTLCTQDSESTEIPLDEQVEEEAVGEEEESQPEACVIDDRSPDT
Sequence of Growth hormone secretagogue receptor type 1 (Q92847 whole entry): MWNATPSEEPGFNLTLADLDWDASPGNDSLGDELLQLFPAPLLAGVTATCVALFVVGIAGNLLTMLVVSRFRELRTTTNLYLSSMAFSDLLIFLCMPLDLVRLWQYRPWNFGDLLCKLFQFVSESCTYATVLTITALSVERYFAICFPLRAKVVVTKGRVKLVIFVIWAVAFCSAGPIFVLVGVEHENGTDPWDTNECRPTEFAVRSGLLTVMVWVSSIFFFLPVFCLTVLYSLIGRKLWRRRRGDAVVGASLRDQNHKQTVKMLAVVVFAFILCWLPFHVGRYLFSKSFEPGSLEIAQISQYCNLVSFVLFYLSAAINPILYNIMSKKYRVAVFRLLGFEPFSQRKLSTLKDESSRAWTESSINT

Row | AC50 (Adenosine receptor A2a) [µM] | AC50 [2] [µM] | AC50 (Androgen receptor) [µM] | AC50 [3] [µM] | AC50 [4] [µM] | AC50 [5] [µM] | AC50 [6] [µM] | AC50 [7] [µM] | AC50 (D(3) dopamine receptor [8]) [µM] | AC50 (Histamine H3 receptor) [µM] | Compound | AC50 (D(3) dopamine receptor [1]) [µM] | AC50 (Estrogen receptor) [µM]
1 | – | – | – | – | – | – | – | – | – | – | CN(C)c1ccc(C(=C2C=CC(=[N+](C)C)C=C2)c2ccc(N(C)C)cc2)cc1 [GENTIAN VIOLET] | 1.21 | > 30
2 | > 30 | > 30 | > 10 | > 30 | > 30 | > 30 | > 30 | > 30 | > 30 | > 30 | HYDROXOCOBALAMIN | – | –

Source: ChEMBL document CHEMBL5291721, “A preclinical secondary pharmacology resource illuminates target-adverse drug reaction associations of marketed drugs” (Nat Commun, 2023)
